biological target: PAR4 (Homo sapiens (Human), UniProt Q96RI0); assay: FLIPR assay in PAR4-expressing HEK293 cells (PAR4 antagonist activity); assay type: cell-based; settings: inhibition of H-Ala-Phe(4-F)-Pro-Gly-Trp-Leu-Val-Lys-Asn-Gly-NH2-induced intracellular calcium mobilization
Text: The FLIPR assay is an exemplary in vitro assay for measuring the activity of the PAR4 antagonists of the present invention. In this assay, intracellular calcium mobilization is induced in PAR4 expressing cells by a PAR4 agonist and calcium mobilization is monitored. See, e.g., Example A.
HEK293 cells stably expressing PAR4 were generated by a standard method of transfection of human PAR4 (F2R23) cDNA expression vector and selected based on PAR4 protein expression or mRNA expression. […] These cells also express endogenous PAR1 and can elicit calcium signal upon stimulation with PAR1 agonist peptide. Therefore, the same cells were also used to determine selectivity against PAR1 and agonist activity for both receptors. Cells from HEK293 PAR4 Clone 1.2A (BMS Arctic ID 383940) were propagated and used for calcium mobilization studies.
FLIPR-based calcium mobilization assay in HEK293 cells was used to measure PAR4 antagonism, agonism, and selectivity against PAR1. The activity of the PAR4 antagonists of the present invention were tested in PAR4 expressing cells by monitoring H-Ala-Phe(4-F)-[…]NH2-induced intracellular calcium mobilization. Counter screens for agonist activity and PAR1 antagonist activity were also performed. Briefly, PAR1/PAR4-expressing HEK293 cells were grown in DMEM (Life Technology, Grand Island, N.Y.) containing 10% heat-inactivated FBS, 1% Penicillin-Streptomycin, 10 μg/mL blasticidin, and 100 μg/mL Zeocin at 37° C. with 5% CO2. Cells were plated overnight prior to the experiment in a black 384-well Purecoat Amine clear bottom plate (Becton Dickinson Biosciences, San Jose, Calif.) at 10,000 cells/well in 30 μL growth medium and incubated in a humidified chamber at 37° C. with 5% CO2 overnight. Prior to compound addition, the cell medium was replaced with […] of 1× calcium and magnesium-containing Hank's Balanced Saline Solution (HBSS) (with 20 mM HEPES) and 1:1000 diluted fluorescent calcium indicator (Codex Biosolutions, Gaithersburg, Md.). After a 30 minute incubation period at 37° C. and a further 30 minute incubation and equilibration period at room temperature, 20 μL test compound (diluted in 1× HBSS buffer) was added at various concentrations at 0.17% dimethyl sulfoxide (DMSO) final concentration. Changes in fluorescence intensity were measured using a Functional Drug Screening System (FDSS, Hamamatsu, Japan) to determine agonist activities. The cells were then incubated for 30 minutes at room temperature followed by addition of 20 μL of agonist peptide for antagonist activity measurement. […] Compound potency was derived from 11-point concentration-response curves.
The following Table sets out results obtained employing various compounds of the invention tested in the FLIPR assay. As indicated above, the FLIPR assay, an in vitro assay, measures the PAR4 antagonist activity of compounds tested as described in Example A.

PAR4, sequence (Q96RI0 18-385): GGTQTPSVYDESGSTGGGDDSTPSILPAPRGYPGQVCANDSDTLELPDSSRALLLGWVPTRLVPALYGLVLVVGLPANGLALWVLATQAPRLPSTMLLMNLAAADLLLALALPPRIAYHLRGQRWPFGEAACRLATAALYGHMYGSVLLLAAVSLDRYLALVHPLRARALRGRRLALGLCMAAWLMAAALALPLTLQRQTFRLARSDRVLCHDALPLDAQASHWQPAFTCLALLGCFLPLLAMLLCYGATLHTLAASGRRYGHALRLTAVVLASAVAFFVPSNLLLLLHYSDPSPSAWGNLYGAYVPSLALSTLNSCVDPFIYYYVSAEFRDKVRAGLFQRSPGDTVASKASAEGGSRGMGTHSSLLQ

| SMILES | EC50 |
| --- | --- |
| CNc1cccc(COc2cc(OC)cc3oc(-c4cn5nc(OC)sc5n4)cc23)c1 [Example 82, 3-(((6-Methoxy-2-(2-methoxyimidazo[2,1-b][1,3,4]thiadiazol-6-yl)benzofuran-4-yl)oxy)methyl)-N-methylaniline] | 5.2 nM |
| COc1cc(OCc2cccc(N(C)C(=O)c3ccc(F)cc3)c2)c2cc(-c3cn4nc(OC)sc4n3)oc2c1 [Example 87] | 5.7 nM |
| COc1cc(OC)cc(C(=O)Nc2cccc(COc3cc(OC)cc4oc(-c5cn6nc(OC)sc6n5)cc34)c2)c1 [Example 137] | 3.4 nM |
| COc1cc(OCc2cccc(NC(=O)OC(C)(C)C)c2)c2cc(-c3cn4nc(OC)sc4n3)oc2c1 [Example 3, tert-Butyl (3-(((6-methoxy-2-(2-methoxyimidazo[2,1-b][1,3,4]thiadiazol-6-yl)benzofuran-4-yl)oxy)methyl)phenyl)carbamate] | 2.6 nM |
| COc1ccc(C(=O)Nc2cccc(COc3cc(OC)cc4oc(-c5cn6nc(OC)sc6n5)cc34)c2)c(OC)c1 [Example 42] | 2.3 nM |
| COc1cc(OCc2cccc(NC(=O)c3cc(OC(F)F)cc(C(F)(F)F)c3)c2)c2cc(-c3cn4nc(OC)sc4n3)oc2c1 [Example 74] | 0.95 nM |
| COc1cc(OCc2cccc(NC(=O)c3ccc([N+](=O)[O-])cc3)c2)c2cc(-c3cn4nc(OC)sc4n3)oc2c1 [Example 33] | 1.8 nM |
| COc1cc(OCc2cccc3c2CCN3C(=O)c2ccc(C)cc2)c2cc(-c3cn4nc(OC)sc4n3)oc2c1 [Example 123] | 5 nM |
| COc1cc(OCc2cccc(NC(=O)c3cccnc3)c2)c2cc(-c3cn4nc(OC)sc4n3)oc2c1 [Example 148] | 6.8 nM |
| COc1cc(OCc2cccc(NC(=O)c3cnccn3)c2)c2cc(-c3cn4nc(OC)sc4n3)oc2c1 [Example 133] | 2.7 nM |
| COc1cc(OCc2cccc(NC(=O)c3cc(Cl)cc(OCc4ccccc4)c3)c2)c2cc(-c3cn4nc(OC)sc4n3)oc2c1 [Example 67] | 680 nM |
| COc1cc(OCc2cccc(NC(=O)c3ccc(OC(F)(F)F)cc3)c2)c2cc(-c3cn4nc(OC)sc4n3)oc2c1 [Example 41] | 1.4 nM |
| COc1cc(OCc2cccc(NC(=O)c3ccc(N(C)C)cc3)c2)c2cc(-c3cn4nc(OC)sc4n3)oc2c1 [Example 43] | 1.6 nM |
| COc1cc(OCc2cccc(NC(=O)c3cnc(-c4ccccc4)nc3C)c2)c2cc(-c3cn4nc(OC)sc4n3)oc2c1 [Example 66] | 5.7 nM |
| COc1cc(OCc2cccc(NC(=O)Cc3nc(C)sc3C)c2)c2cc(-c3cn4nc(OC)sc4n3)oc2c1 [Example 49] | 0.85 nM |
| COc1cc(OCc2cccc(NC(=O)c3ccc4c(c3)OCO4)c2)c2cc(-c3cn4nc(OC)sc4n3)oc2c1 [Example 22] | 1.1 nM |
| COc1cc(OCc2cccc(NC(=O)C3CCCCC3)c2)c2cc(-c3cn4nc(OC)sc4n3)oc2c1 [Example 150] | 2.3 nM |
| COc1cc(OCc2cccc(NC(=O)c3ccc(OC(F)F)cc3)c2)c2cc(-c3cn4nc(OC)sc4n3)oc2c1 [Example 164] | 2 nM |
| COc1cc(OCc2cccc(NC(=O)c3c(C)noc3C)c2)c2cc(-c3cn4nc(OC)sc4n3)oc2c1 [Example 45] | 2.8 nM |
| COc1cc(OCc2ccc3c(c2)N(C(=O)c2ccccc2C)CC3)c2cc(-c3cn4nc(OC)sc4n3)oc2c1 [Example 101] | 3.1 nM |
| COc1cc(OCc2cccc(NC(=O)CC3CCCC3)c2)c2cc(-c3cn4nc(OC)sc4n3)oc2c1 [Example 138] | 2.5 nM |
| COc1cc(OCc2cccc(NS(=O)(=O)c3ccccc3)c2)c2cc(-c3cn4nc(OC)sc4n3)oc2c1 [Example 7, N-(3-(((6-methoxy-2-(2-methoxyimidazo[2,1-b][1,3,4]thiadiazol-6-yl)benzofuran-4-yl)oxy)methyl)phenyl)benzenesulfonamide] | 10 nM |
| COc1cc(OCc2cccc(NC(=O)c3cccc(C)c3)c2)c2cc(-c3cn4nc(OC)sc4n3)oc2c1 [Example 20] | 1.4 nM |
| COc1cc(OCc2cccc(NC(=O)c3cc(F)ccc3F)c2)c2cc(-c3cn4nc(OC)sc4n3)oc2c1 [Example 154] | 2.2 nM |
| COc1cc(OCc2cccc(NC(=O)c3c(Cl)cccc3Cl)c2)c2cc(-c3cn4nc(OC)sc4n3)oc2c1 [Example 12] | 1.5 nM |

| SMILES | EC50 |
| --- | --- |
| COc1cc(OCc2cccc(NC(=O)c3cccc(-c4ccccc4)c3)c2)c2cc(-c3cn4nc(OC)sc4n3)oc2c1 [Example 158] | 12 nM |
| COc1cc(OCc2cccc(NC(=O)C(C)(C)Oc3ccccc3)c2)c2cc(-c3cn4nc(OC)sc4n3)oc2c1 [Example 40] | 1.4 nM |
| COc1cc(OCc2cccc(NC(=O)c3cccc(Br)c3)c2)c2cc(-c3cn4nc(OC)sc4n3)oc2c1 [Example 10] | 1.9 nM |
| COc1cc(OCc2cccc3c2CCN3)c2cc(-c3cn4nc(OC)sc4n3)oc2c1 [Example 114, 6-(4-(Indolin-4-ylmethoxy)-6-methoxybenzofuran-2-yl)-2-methoxyimidazo[2,1-b][1,3,4]thiadiazole] | 37 nM |
| COc1cc(OCc2cccc(NC(=O)c3cccc4ccccc34)c2)c2cc(-c3cn4nc(OC)sc4n3)oc2c1 [Example 15] | 1.7 nM |
| COc1cc(OCc2cccc(NC(=O)CC3CCCCC3)c2)c2cc(-c3cn4nc(OC)sc4n3)oc2c1 [Example 146] | 7.5 nM |
| COc1cc(OCc2cccc(N(C)C(=O)OC(C)(C)C)c2)c2cc(-c3cn4nc(OC)sc4n3)oc2c1 [Example 81, tert-Butyl (3-(((6-methoxy-2-(2-methoxyimidazo[2,1-b][1,3,4]thiadiazol-6-yl)benzofuran-4-yl)oxy)methyl)phenyl)(methyl)carbamate] | 4.8 nM |
| COc1ccc(C(=O)Nc2cccc(COc3cc(OC)cc4oc(-c5cn6nc(OC)sc6n5)cc34)c2)cc1 [Example 18] | 0.91 nM |
| COc1cc(OCc2cccc(NC(=O)c3cncnc3)c2)c2cc(-c3cn4nc(OC)sc4n3)oc2c1 [Example 57] | 1.8 nM |
| COc1cc(OCc2cccc(N(C)C(=O)c3cccc(F)c3)c2)c2cc(-c3cn4nc(OC)sc4n3)oc2c1 [Example 85] | 6.1 nM |
| COc1cc(OCc2cccc(NC(=O)c3cccnc3F)c2)c2cc(-c3cn4nc(OC)sc4n3)oc2c1 [Example 61] | 1.5 nM |
| COc1cc(OCc2cccc(NC(=O)c3ccccc3F)c2)c2cc(-c3cn4nc(OC)sc4n3)oc2c1 [Example 26] | 0.75 nM |
| COc1cc(OCc2cccc(NC(=O)c3ccc(F)cc3F)c2)c2cc(-c3cn4nc(OC)sc4n3)oc2c1 [Example 152] | 1.3 nM |
| COc1cc(OCc2cccc(NC(=O)c3ccc(C(C)(C)C)cc3)c2)c2cc(-c3cn4nc(OC)sc4n3)oc2c1 [Example 37] | 2.5 nM |
| COc1cc(OCc2cccc(NC(=O)c3ccc(Oc4ccccc4)nc3)c2)c2cc(-c3cn4nc(OC)sc4n3)oc2c1 [Example 51] | 2.3 nM |
| COc1cc(OCc2cccc(N(C)C(=O)c3sc(C)nc3C)c2)c2cc(-c3cn4nc(OC)sc4n3)oc2c1 [Example 93] | 4.8 nM |
| COc1cc(OCc2cccc(NC(=O)NCc3ccccc3)c2)c2cc(-c3cn4nc(OC)sc4n3)oc2c1 [Example 38] | 4.8 nM |
| COc1cc(OCc2cccc(NC(=O)c3ccccc3C)c2)c2cc(-c3cn4nc(OC)sc4n3)oc2c1 [Example 27] | 0.87 nM |
| COc1cc(OCc2cccc(NC(=O)c3ccc(C(F)(F)F)cc3)c2)c2cc(-c3cn4nc(OC)sc4n3)oc2c1 [Example 153] | 0.99 nM |
| COc1cc(OCc2cccc(NC(=O)c3c(F)cc(F)cc3F)c2)c2cc(-c3cn4nc(OC)sc4n3)oc2c1 [Example 21] | 1.5 nM |
| COc1cc(OCc2ccc3c(c2)N(C(C)=O)CC3)c2cc(-c3cn4nc(OC)sc4n3)oc2c1 [Example 107] | 26 nM |
| COc1cc(OCc2cccc(NC(=O)c3cccc(C(F)(F)F)c3)c2)c2cc(-c3cn4nc(OC)sc4n3)oc2c1 [Example 149] | 2 nM |
| COc1cc(OCc2cccc(N(C)C(=O)c3ccccc3)c2)c2cc(-c3cn4nc(OC)sc4n3)oc2c1 [Example 83, N-(3-(((6-methoxy-2-(2-methoxyimidazo[2,1-b][1,3,4]thiadiazol-6-yl)benzofuran-4-yl)oxy)methyl)phenyl)-N-methylbenzamide] | 4.1 nM |
| COc1cc(OCc2cccc(NC(=O)c3cccnc3Cl)c2)c2cc(-c3cn4nc(OC)sc4n3)oc2c1 [Example 58] | 0.74 nM |
| COc1cc(OCc2cccc3c2CCN3C(=O)c2ccccc2C)c2cc(-c3cn4nc(OC)sc4n3)oc2c1 [Example 122] | 5 nM |

Reference: US10214544B2, “Imidazopyridazine and imidazothiadiazole compounds” (Universite de Montreal, priority 2015, dated 2019)
